Experimental data published in PubChem BioAssay (NCI).
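Five compound concentrations were applied to cells in 96-well plates for 48 hours; endpoints were derived by simple linear interpolation of the resulting dose-response curve. The concentration for 50% growth inhibition is given as GI50. TGI denotes the concentration required for complete inhibition of growth.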

Columns and labels:
Experiment in all cases: NCI tumour cell line growth inhibition, 48 h
[1] = tested on: K-562 leukemia
[2] = tested on: SNB-75 CNS
[3] = tested on: T-47D breast
[4] = tested on: NCI/ADR-RES ovarian
[5] = tested on: SK-OV-3 ovarian
[6] = tested on: A549 NSCLC
[7] = tested on: LOX IMVI melanoma
[8] = tested on: OVCAR-4 ovarian
[9] = tested on: DU-145 prostate
[10] = tested on: 786-0 renal
[11] = tested on: NCI-H23 lung
[12] = tested on: SW-620 colon
[13] = tested on: TK-10 renal
[14] = tested on: MDA-MB-231 breast
[15] = tested on: SK-MEL-2 melanoma
[16] = tested on: A498 renal
[17] = tested on: EKVX NSCLC
[18] = tested on: SK-MEL-5 melanoma
[19] = tested on: KM12 colon
[20] = tested on: SR leukemia
[21] = tested on: RXF 393 renal
[22] = tested on: HOP-62 NSCLC
[23] = tested on: SNB-19 CNS
[24] = tested on: MOLT-4 leukemia
[25] = tested on: IGROV1 ovarian
[26] = tested on: UO-31 renal
[27] = tested on: BT-549 breast
[28] = tested on: SF-539 CNS
[29] = tested on: OVCAR-5 ovarian
[30] = tested on: SK-MEL-28 melanoma
[31] = tested on: SF-295 CNS
[32] = tested on: U251 CNS
[33] = tested on: CCRF-CEM leukemia
[34] = tested on: HS 578T breast
[35] = tested on: HCC-2998 colon
[36] = tested on: RPMI-8226 leukemia
[37] = tested on: SF-268 CNS
[38] = tested on: NCI-H226 lung
[39] = tested on: NCI-H460 lung
[40] = tested on: MALME-3M melanoma
[41] = tested on: UACC-62 melanoma
[42] = tested on: OVCAR-8 ovarian
[43] = tested on: HOP-92 NSCLC
[44] = tested on: MDA-MB-435
[45] = tested on: CAKI-1 renal
[46] = tested on: HT29 colon
[47] = tested on: HCT-15 colon
[48] = tested on: MCF7 breast
[49] = tested on: HL-60(TB) leukemia
[50] = tested on: ACHN renal
[51] = tested on: NCI-H522 lung
[52] = tested on: PC-3 prostate
[53] = tested on: SN12C renal
[54] = tested on: M14 melanoma
[55] = tested on: HCT-116 colon
[56] = tested on: UACC-257 melanoma
[57] = tested on: COLO 205 colon

SMILES: NC(N)=Nc1ccc(Nc2cccc(Oc3ccc(Cl)c(C(F)(F)F)c3)c2)cn1
- GI50 [1]: 2110 nM
- TGI [1]: > 100 µM
- GI50 [2]: 1600 nM
- TGI [2]: 3.33 µM
- GI50 [3]: 1620 nM
- TGI [3]: 4.55 µM
- GI50 [4]: 15.6 µM
- TGI [4]: > 100 µM
- GI50 [5]: 3.5 µM
- TGI [5]: 13.2 µM

SMILES: Cn1ccnc1C(=O)/C=C/c1ccc(CNC(=O)c2ccc(F)cc2)cc1
- GI50 [6]: 5.74 µM
- TGI [6]: > 25 µM
- GI50 [7]: 1190 nM
- TGI [7]: 4.4 µM
- GI50 [8]: 5.49 µM
- TGI [8]: > 25 µM
- GI50 [1]: 1020 nM
- TGI [1]: > 25 µM
- GI50 [9]: 1500 nM
- TGI [9]: 4.89 µM
- GI50 [10]: 4.12 µM
- TGI [10]: 12.1 µM
- GI50 [11]: 3.58 µM
- TGI [11]: 9.3 µM
- GI50 [2]: 2500 nM
- TGI [2]: > 25 µM
- GI50 [12]: 2770 nM
- TGI [12]: 8.72 µM
- GI50 [13]: 5.92 µM
- TGI [13]: 17.4 µM
- GI50 [14]: 5.9 µM
- TGI [14]: > 25 µM
- GI50 [15]: 4.95 µM
- TGI [15]: 14.8 µM
- GI50 [16]: 3.35 µM
- TGI [16]: 6.79 µM
- GI50 [17]: 10.4 µM
- TGI [17]: > 25 µM
- GI50 [18]: 7.08 µM
- TGI [18]: 21 µM
- GI50 [19]: 2130 nM
- TGI [19]: 5.44 µM
- GI50 [3]: 2540 nM
- TGI [3]: 22.9 µM
- GI50 [20]: 792 nM
- TGI [20]: > 25 µM
- GI50 [21]: 3.11 µM
- TGI [21]: 7.27 µM
- GI50 [22]: 3.69 µM
- TGI [22]: 12.5 µM
- GI50 [23]: 3.39 µM
- TGI [23]: 10.5 µM
- GI50 [4]: 6.06 µM
- TGI [4]: > 25 µM
- GI50 [24]: 5.03 µM
- TGI [24]: 15.8 µM
- GI50 [25]: 3.03 µM
- TGI [25]: 12.1 µM
- GI50 [26]: 2630 nM
- TGI [26]: 6.19 µM
- GI50 [27]: 2610 nM
- TGI [27]: 6.77 µM
- GI50 [28]: 2590 nM
- TGI [28]: 6.28 µM
- GI50 [29]: 3.54 µM
- TGI [29]: 9.04 µM
- GI50 [30]: 4.82 µM
- TGI [30]: 11.6 µM
- GI50 [31]: 9.12 µM
- TGI [31]: > 25 µM
- GI50 [32]: 2350 nM
- TGI [32]: 6.7 µM
- GI50 [33]: 2550 nM
- TGI [33]: > 25 µM
- GI50 [34]: 8.13 µM
- TGI [34]: > 25 µM
- GI50 [35]: 3.8 µM
- TGI [35]: 7.54 µM
- GI50 [36]: 1010 nM
- TGI [36]: 5.98 µM
- GI50 [37]: 2980 nM
- TGI [37]: 9.42 µM
- GI50 [38]: 6.9 µM
- TGI [38]: > 25 µM
- GI50 [39]: 3.4 µM
- TGI [39]: 10.5 µM
- GI50 [40]: 4.48 µM
- TGI [40]: 12.2 µM
- GI50 [5]: 7.54 µM
- TGI [5]: > 25 µM
- GI50 [41]: 4.26 µM
- TGI [41]: 9.47 µM
- GI50 [42]: 6.62 µM
- TGI [42]: > 25 µM
- GI50 [43]: 5.32 µM
- TGI [43]: 24.7 µM
- GI50 [44]: 4.08 µM
- TGI [44]: 10.4 µM
- GI50 [45]: 2360 nM
- TGI [45]: > 25 µM
- GI50 [46]: 2980 nM
- TGI [46]: 7.36 µM
- GI50 [47]: 1900 nM
- TGI [47]: > 25 µM
- GI50 [48]: 1670 nM
- TGI [48]: > 25 µM
- GI50 [49]: 2990 nM
- TGI [49]: 10.4 µM
- GI50 [50]: 4.17 µM
- TGI [50]: 8.72 µM
- GI50 [51]: 4.04 µM
- TGI [51]: 7.74 µM
- GI50 [52]: 3.87 µM
- TGI [52]: 10.8 µM
- GI50 [53]: 6.67 µM
- TGI [53]: > 25 µM
- GI50 [54]: 4.7 µM
- TGI [54]: 12.2 µM
- GI50 [55]: 3.46 µM
- TGI [55]: 8.47 µM
- GI50 [56]: 5.52 µM
- TGI [56]: 19.2 µM
- GI50 [57]: 2780 nM
- TGI [57]: 7.05 µM
